From PubChem BioAssay AID1963848 (Molecular Pharmacology Branch, DTP, NCI, 2024)
“And” between values parts separate entries of the source, which are not always exact repeats. Identical values can stand only once.

Test system: 379773-124-R-J2-PDC spheroid viability
Test: Anticancer human tumor 379773-124-R-J2-PDC patient-derived endometrial carcinoma cell line growth inhibition [POLQ]
Details: spheroids with HUVEC and MSC; for viability, T/C: stronger effect = lower value
Protocol: Multicellular complex tumor spheroid response to Polymerase (POL) inhibitors (novobiocin, ART-558, RP6685) in combination with a variety of drugs and investigational agents in selected tumor cell lines
The POL inhibitors (novobiocin, ART-558, and RP6685) were evaluated both individually and in combination with standard of care and investigational anticancer small molecules within a complex spheroid model of solid tumors. . Complex spheroids include a stromal component modeled by human endothelial cells (HUVEC) and fibroblasts modeled by human mesenchymal stem cells (MSCs). The concentration ranges selected for each drug and investigational agent were based upon clinically achievable concentrations if the clinical Cmax of the agent was known.
Compounds. The drugs and investigational agents: novobiocin (NSC847541), ART-558 (NSC835418), RP-6685 (NSC848927), peposertib (NSC802822), ceralasertib (NSC780249), elimusertib (NSC800525), camonsertib (NSC841442), AZD-1390 (NSC803789), olaparib (NSC753686), talazoparib (NSC767125), rucaparib (NSC756644), sotorasib (NSC818433), MRTX-1133 (NSC836407), SN-38 (NSC673596), topotecan (NSC609699), epotoside (NSC141540), doxorubicin (NSC123127), gemcitabine (NSC613327), 5-fluorouracil (NSC19893), paclitaxel (NSC125973), vemurafenib (NSC761431), MSA-2 (NSC828583), SN-011 (NSC837082), adavosertib (NSC754352), prexasertib (NSC758257), carboplatin (NSC241240) and oxaliplatin (NSC266046), were obtained from the National Cancer Institute (NCI) Developmental Therapeutics Program Chemical Repository (21). The FDA-approved anticancer drug set is available from the Developmental Therapeutics Program at https://dtp.cancer.gov/organization/dscb/obtaining/. […] The stock solutions were prepared in dimethyl sulfoxide (DMSO, Sigma-Aldrich, St. Louis, MO, cat. D2650), except for the platinum compounds which were prepared in saline (Quality Biological, Gaithersburg, MD, cat. 114-055-101), at 800-fold the tested concentration and stored at -70 degrees C prior to their use. All drugs and investigational agents were tested over a range starting from a high concentration at or near the clinical Cmax and decreasing in half-log increments. If the clinical Cmax for an agent had not been determined, the highest concentration tested was 10 microM, except for SN-38, which was tested at a high concentration of 1 microM.
Cell Culture. All cells were maintained in an incubator at 37 degrees C and 5% CO2 with 95% humidity. The PDC lines were cultured according to standard operating procedures established by the NCI PDMR (https://pdmr.cancer.gov). Table 3 of the manuscript, lists the cell lines along with the number of the three cell types plated to form the mct-spheroids and media for tumor cell growth. After thawing, all PDC lines, except 997537-175-T-J1-PDC and 415267-285-R-J2-PDC, were cultured in Matrigel-coated flasks prepared with a working solution of 1X Ham's F-12 nutrient mix, without supplementation (Thermo Fisher Scientific, cat. 11765054), 100 U/mL penicillin-streptomycin (Thermo Fisher Scientific, cat. 15140122), and 2.5% Matrigel (Corning Inc., Corning, NY, cat. 354248) for the first three passages. The two PDC lines 997537-175-T-J1-PDC and 415267-285-R-J2-PDC were cultured on uncoated flasks. The 857933-349-R-J2-PDC line was cultured in 6C/Colon 1B media containing advanced DMEM/F-12 (Thermo Fisher Scientific, cat. 12634028), 10 mM HEPES (Thermo Fisher Scientific, cat. 15630080), 1X GlutaMAX supplement (Thermo Fisher Scientific, cat. 35050061), 0.1 mg/mL primocin (InvivoGen, San Diego, CA, cat. ant-pm-2), 10% defined fetal bovine serum, heat inactivated (HyClone Laboratories Inc., Logan, UT, cat. SH30070.03HI), 50% L-WRN conditioned media (ATCC, cat. CRL-3276), 1.25 mM N-Acetyl-L-cysteine (Sigma-Aldrich, cat. A9165), 10 mM nicotinamide (Sigma-Aldrich, cat. N0636), 1X B-27 supplement (Thermo Fisher Scientific, cat. 17504044), 1X N-2 supplement (Thermo Fisher Scientific, cat. […]

[1] = curve of first compound, second compound 0.0316 µM
[2] = curve of first compound, second compound 0.1 µM
[3] = curve of first compound, second compound 0.316 µM
[4] = curve of first compound, second compound 1 µM
[5] = curve of first compound, second compound 3.16 µM
[6] = curve of first compound, second compound 10 µM
[7] = second compound 0.0316 µM, first compound 0.0316 µM
[8] = second compound 0.0316 µM, first compound 0.1 µM
[9] = second compound 0.1 µM, first compound 0.0316 µM
[10] = second compound 0.1 µM, first compound 0.1 µM
[11] = second compound 0.316 µM, first compound 0.0316 µM
[12] = second compound 0.316 µM, first compound 0.1 µM
[13] = second compound 1 µM, first compound 0.0316 µM
[14] = second compound 1 µM, first compound 0.1 µM
[15] = second compound 3.16 µM, first compound 0.0316 µM
[16] = second compound 3.16 µM, first compound 0.1 µM
[17] = second compound 10 µM, first compound 0.0316 µM
[18] = second compound 10 µM, first compound 0.1 µM
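Also: spheroids exposed to drugs for seven days before readout.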
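For viability, T/C in this document: percent viability relative to DMSO vehicle control taken as 100%.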

In the case of `CC[C@@]1(O)C(=O)OCc2c1cc1n(c2=O)Cc2cc3c(CN(C)C)c(O)ccc3nc2-1` + COC1C(OC(N)=O)C(O)C(Oc2ccc3c(O)c(NC(=O)c4ccc(O)c(CC=C(C)C)c4)c(=O)oc3c2C)OC1(C)C, the IC50 [1] is reported as 32.5 nM, the IC50 [2] is reported as 19.2 nM and the IC50 [3] is reported as 19 nM. It also gave an IC50 [4] of 17 nM, an IC50 [5] of 21.9 nM and an IC50 [6] of 21 nM. It also gave a viability, T/C (second compound 0.0316 µM, first compound 0.000316 µM) of 86.5%, a viability, T/C (second compound 0.0316 µM, first compound 0.001 µM) of 79.3% and a viability, T/C (second compound 0.0316 µM, first compound 0.00316 µM) of 85.7%. For the same compound, the viability, T/C (second compound 0.0316 µM, first compound 0.01 µM) was 73.5%, the viability, T/C [7] was 51.2% and the viability, T/C [8] was 10.9%. For the same compound, the viability, T/C (second compound 0.1 µM, first compound 0.000316 µM) was 73.3%, the viability, T/C (second compound 0.1 µM, first compound 0.001 µM) was 77.8% and the viability, T/C (second compound 0.1 µM, first compound 0.00316 µM) was 74.1%. It also gave a viability, T/C (second compound 0.1 µM, first compound 0.01 µM) of 71.2%, a viability, T/C [9] of 33.9% and a viability, T/C [10] of 14.1%. It also gave a viability, T/C (second compound 0.316 µM, first compound 0.000316 µM) of 85.7%, a viability, T/C (second compound 0.316 µM, first compound 0.001 µM) of 78.6% and a viability, T/C (second compound 0.316 µM, first compound 0.00316 µM) of 78.2%. It also gave a viability, T/C (second compound 0.316 µM, first compound 0.01 µM) of 71.2%, a viability, T/C [11] of 33.6% and a viability, T/C [12] of 12.1%. The viability, T/C (second compound 1 µM, first compound 0.000316 µM) was 86.4%, the viability, T/C (second compound 1 µM, first compound 0.001 µM) was 94.9% and the viability, T/C (second compound 1 µM, first compound 0.00316 µM) was 72.6%. The viability, T/C (second compound 1 µM, first compound 0.01 µM) was 68%, the viability, T/C [13] was 32.2% and the viability, T/C [14] was 9.89%. It also gave a viability, T/C (second compound 3.16 µM, first compound 0.000316 µM) of 76.9%, a viability, T/C (second compound 3.16 µM, first compound 0.001 µM) of 71.5% and a viability, T/C (second compound 3.16 µM, first compound 0.00316 µM) of 83.1%. It also gave a viability, T/C (second compound 3.16 µM, first compound 0.01 µM) of 65%, a viability, T/C [15] of 42.4% and a viability, T/C [16] of 11.6%. For the same compound, the viability, T/C (second compound 10 µM, first compound 0.000316 µM) was 72.9%, the viability, T/C (second compound 10 µM, first compound 0.001 µM) was 73.3% and the viability, T/C (second compound 10 µM, first compound 0.00316 µM) was 82.5%. It also gave a viability, T/C (second compound 10 µM, first compound 0.01 µM) of 69.6%, a viability, T/C [17] of 38.8% and a viability, T/C [18] of 12.5%.

In the case of `CNCc1ccc(-c2[nH]c3cc(F)cc4c3c2CCNC4=O)cc1` + Nc1ccc(C#CCN(C(=O)Cc2ncc(C(F)(F)F)cc2C(F)(F)F)c2ccc(F)cc2)nn1, the IC50 [1] is reported as > 10000 nM, the IC50 [2] is reported as > 10000 nM and the IC50 [3] is reported as > 10000 nM. For the same compound, the IC50 [4] was > 10000 nM, the IC50 [5] was > 10000 nM and the IC50 [6] was > 10000 nM. For the same compound, the viability, T/C [7] was 92.7%, the viability, T/C [8] was 91.7% and the viability, T/C (second compound 0.0316 µM, first compound 0.316 µM) was 91.2%. For the same compound, the viability, T/C (second compound 0.0316 µM, first compound 1 µM) was 101%, the viability, T/C (second compound 0.0316 µM, first compound 3.16 µM) was 99.8% and the viability, T/C (second compound 0.0316 µM, first compound 10 µM) was 99.7%. The viability, T/C [9] was 84.4%, the viability, T/C [10] was 90.7% and the viability, T/C (second compound 0.1 µM, first compound 0.316 µM) was 87.5%. It also gave a viability, T/C (second compound 0.1 µM, first compound 1 µM) of 95.8%, a viability, T/C (second compound 0.1 µM, first compound 3.16 µM) of 101% and a viability, T/C (second compound 0.1 µM, first compound 10 µM) of 79.6%. For the same compound, the viability, T/C [11] was 101%, the viability, T/C [12] was 95.4% and the viability, T/C (second compound 0.316 µM, first compound 0.316 µM) was 85.9%. The viability, T/C (second compound 0.316 µM, first compound 1 µM) was 87.1%, the viability, T/C (second compound 0.316 µM, first compound 3.16 µM) was 93.8% and the viability, T/C (second compound 0.316 µM, first compound 10 µM) was 93.3%. It also gave a viability, T/C [13] of 90.4%, a viability, T/C [14] of 101% and a viability, T/C (second compound 1 µM, first compound 0.316 µM) of 91.2%. The viability, T/C (second compound 1 µM, first compound 1 µM) was 91.2%, the viability, T/C (second compound 1 µM, first compound 3.16 µM) was 92.9% and the viability, T/C (second compound 1 µM, first compound 10 µM) was 83.4%. It also gave a viability, T/C [15] of 88.2%, a viability, T/C [16] of 86% and a viability, T/C (second compound 3.16 µM, first compound 0.316 µM) of 84.8%. It also gave a viability, T/C (second compound 3.16 µM, first compound 1 µM) of 86%, a viability, T/C (second compound 3.16 µM, first compound 3.16 µM) of 96.3% and a viability, T/C (second compound 3.16 µM, first compound 10 µM) of 79.4%. The viability, T/C [17] was 102%, the viability, T/C [18] was 88.4% and the viability, T/C (second compound 10 µM, first compound 0.316 µM) was 85.3%. The viability, T/C (second compound 10 µM, first compound 1 µM) was 87.1%, the viability, T/C (second compound 10 µM, first compound 3.16 µM) was 96.6% and the viability, T/C (second compound 10 µM, first compound 10 µM) was 86.4%.

For `CNCc1ccc(-c2[nH]c3cc(F)cc4c3c2CCNC4=O)cc1`, the viability, T/C (compound 0.0316 µM) was 79.5% and 90.1% and 98.3%, the viability, T/C (compound 0.1 µM) was 85.4% and 95.9% and 92.6% and the viability, T/C (compound 0.316 µM) was 76.9% and 93.3% and 85.4%. For the same compound, the viability, T/C (compound 1 µM) was 77.7% and 96% and 82.6%, the viability, T/C (compound 3.16 µM) was 71.9% and 100% and 80.1% and the viability, T/C (compound 10 µM) was 56.2% and 82.1% and 66.5%. For the same compound, the IC50 (curve of compound) was > 10000 nM.
